Consider five compounds from ChEMBL document CHEMBL1151093, “6,7,8,9-tetrahydro-3-hydroxy-1H-1-benzazepine-2,5-diones via a diels-alder reaction:antagonists with a non-planar hydrophobic region for NMDA receptor glycine sites” (Bioorg Med Chem Lett, 1995).

In the assay the target is Glutamate receptor ionotropic, NMDA 1 (Rattus norvegicus, UniProt P35439). The assay is described as follows: Tested for the inhibition of [3H]5,7-dichlorokynurenic acid (DCKA) binding to NMDA receptor.
On to `O=c1cc(O)c2ccccc2[nH]c1=O`, for which the IC50 came to 827 nM.

Take `O=c1cc(O)c2c([nH]c1=O)CC(Cl)C(Cl)C2` (stereo not given): the IC50 turned out to be 131 nM.

As for `O=c1cc(O)c2ccc(Cl)cc2[nH]c1=O`, the IC50 worked out at 13 nM.

As to `CC1Cc2[nH]c(=O)c(=O)cc(O)c2CC1C` (stereo not given), the IC50 is 228 nM.

With `O=c1cc(O)c2c([nH]c1=O)CCCC2`, the IC50 came out at 3210 nM.

As a reminder, the IC50 is the point on the concentration scale where inhibition reaches its midpoint. Read a low IC50 as higher potency.
